Data taken from article PMC5814047, “Peptidic inhibitors of insulin-degrading enzyme with potential for dermatological applications discovered via phage display” (PLoS ONE, 2018).
Several values for one entry are separate records, joined by “and”; a condition that tells them apart may be missing. Identical values can stand only once. Bridge positions count the residues as written; N and C are the ends. Ends that are not written are not given here. Peptide text beside a SMILES is read from it.

Assays:
IDE [1] = target: T1, IDE (Homo sapiens, UniProt P14735); assay: Vulnerability of peptides to degradation by IDE: 0 vs 4 h pre-incubation, then FRET1 assay; assay type: biochemical; settings: for remaining activity at 0.12207 µM / remaining activity at 0.488281 µM / remaining activity at 1.95312 µM / remaining activity at 7.8125 µM / remaining activity at 31.25 µM / remaining activity at 125 µM / remaining activity at 500 µM: 4 h, relative to DMSO-only controls, read-out: Percent Activity (normalized initial velocity of FRET1 hydrolysis); for remaining activity at 0.12207 µM: Cmpd 0.12207 uM; for remaining activity at 0.488281 µM: Cmpd 0.488281 uM; for remaining activity at 1.95312 µM: Cmpd 1.95312 uM; for remaining activity at 7.8125 µM: Cmpd 7.8125 uM; for remaining activity at 31.25 µM: Cmpd 31.25 uM; for remaining activity at 125 µM: Cmpd 125 uM; for remaining activity at 500 µM: Cmpd 500 uM; for Ki: Cheng-Prusoff from IC50, FRET1 KM 10 uM, substrate 5 uM; for IC50: FRET1 assay
T1 construct: made in house; host or cells: bacteria
T1 sequence (P14735 1-1019): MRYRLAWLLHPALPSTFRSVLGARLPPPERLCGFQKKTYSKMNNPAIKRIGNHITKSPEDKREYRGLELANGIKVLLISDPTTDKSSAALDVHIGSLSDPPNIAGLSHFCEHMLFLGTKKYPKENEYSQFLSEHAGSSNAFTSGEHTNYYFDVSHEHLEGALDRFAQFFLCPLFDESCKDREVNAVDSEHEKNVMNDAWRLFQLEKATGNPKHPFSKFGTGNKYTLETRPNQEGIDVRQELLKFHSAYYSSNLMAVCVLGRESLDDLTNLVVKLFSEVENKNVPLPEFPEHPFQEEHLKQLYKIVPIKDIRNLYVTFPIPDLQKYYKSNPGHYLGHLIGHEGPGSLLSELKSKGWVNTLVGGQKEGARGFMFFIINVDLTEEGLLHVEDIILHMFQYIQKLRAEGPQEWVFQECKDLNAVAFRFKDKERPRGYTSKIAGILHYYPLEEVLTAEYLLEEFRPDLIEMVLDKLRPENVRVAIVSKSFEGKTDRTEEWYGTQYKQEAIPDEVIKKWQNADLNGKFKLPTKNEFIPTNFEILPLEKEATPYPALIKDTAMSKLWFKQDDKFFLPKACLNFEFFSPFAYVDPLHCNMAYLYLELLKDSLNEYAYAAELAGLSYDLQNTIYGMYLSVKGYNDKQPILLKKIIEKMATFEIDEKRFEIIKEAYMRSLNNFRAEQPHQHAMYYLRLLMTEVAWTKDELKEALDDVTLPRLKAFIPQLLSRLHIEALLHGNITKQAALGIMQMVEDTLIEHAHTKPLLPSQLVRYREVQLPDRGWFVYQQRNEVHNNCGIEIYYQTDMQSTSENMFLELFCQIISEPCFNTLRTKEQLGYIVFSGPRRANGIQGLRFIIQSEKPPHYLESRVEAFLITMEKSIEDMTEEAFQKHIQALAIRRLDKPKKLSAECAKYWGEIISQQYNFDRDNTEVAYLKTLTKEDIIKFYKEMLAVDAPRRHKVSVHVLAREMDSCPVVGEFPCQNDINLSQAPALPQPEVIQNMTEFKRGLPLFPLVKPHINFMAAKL
Description: IDE activity was quantified by monitoring the degradation of Mca-[…](Dnp) (FRET1, 5 μM), fluoresceinated and biotinylated amyloid ß-protein (FAßB; 500 nM) or recombinant human insulin (50 nM) in PBS supplemented with 0.05% BSA. […] In vitro activity assays incorporated recombinant human IDE (1 nM) purified from bacteria. For quantitation of insulin degradation in primary murine skin fibroblasts, cells (1 x 10^5/well) were plated in 96-well plates and maintained in DMEM supplemented with 10% fetal bovine serum (FBS), 2mM glutamine, penicillin and streptomycin. After addition of insulin (10 nM or 100 nM), samples of conditioned medium were removed daily and quickly frozen, then insulin levels were quantified in parallel by ELISA according to manufacturer’s recommendations (Crystal Chem, Downers Grove, IL, USA). Assessment of the activity of P12-3A against a variety of matrix-metalloproteases was conducted using the Matrix Metalloproteinase (MMP) Inhibitor Profiling Kit, Fluorometric RED (Enzo Life Sciences, Inc., Farmingdale, NY, USA) according to manufacturer’s recommendations using the broad-spectrum MMP inhibitor, NNGH, as a positive control.

IDE [2] = target: T1, IDE; assay: biochemical; settings: for IC50 <10 uM?: initial test at 10 uM using insulin (100 nM); for remaining activity at 0.016 µM: Cmpd 0.016 uM; for remaining activity at 0.08 µM: Cmpd 0.08 uM; for remaining activity at 0.4 µM: Cmpd 0.4 uM; for remaining activity at 2 µM: Cmpd 2 uM; for remaining activity at 10 µM: Cmpd 10 uM
Summary of the method: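 Bacterially expressed recombinant human IDE (1 nM) in PBS with 0.05% BSA. Substrates: FRET1 (5 μM; fluorescence, ex 340/em 420 nm), fluoresceinated biotinylated amyloid β-protein (500 nM; fluorescence polarization, ex 488/em 525 nm), or recombinant human insulin (50 nM; ELISA).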

[3] = 4-hr incubation, individual runs
[4] = insulin ELISA, Runs 1-3, read-out: Percent Activity (normalized source data)
[5] = 4-hr incubation, individual replicates, read-out: IC50s
[6] = 4-hr incubation, mean of 2 replicates, read-out: IC50s, Mean
[7] = insulin ELISA assay, dose-response, Replicates 1-3, read-out: IC50s, individual replicates
[8] = insulin ELISA assay, dose-response, N=3, read-out: IC50s, Mean
[9] = substrate recombinant human insulin 50 nM, Ki from IC50 with the Cheng-Prusoff equation
[10] = 0-hr incubation (immediately after combining enzyme and peptide), individual runs, read-out: IC50s

| Molecule | remaining activity at 0.12207 µM (IDE [1]; [3]) | remaining activity at 0.488281 µM (IDE [1]; [3]) | remaining activity at 1.95312 µM (IDE [1]; [3]) | remaining activity at 7.8125 µM (IDE [1]; [3]) | remaining activity at 31.25 µM (IDE [1]; [3]) | remaining activity at 125 µM (IDE [1]; [3]) | remaining activity at 500 µM (IDE [1]; [3]) | IC50 <10 uM? (IDE [2]) | remaining activity at 0.016 µM (IDE [2]; [4]) | remaining activity at 0.08 µM (IDE [2]; [4]) | remaining activity at 0.4 µM (IDE [2]; [4]) | remaining activity at 2 µM (IDE [2]; [4]) | remaining activity at 10 µM (IDE [2]; [4]) | Ki (IDE [1]; 4-hr incubation) | IC50 (IDE [1]; [5]) | IC50 (IDE [1]; [6]) | IC50 (IDE [2]; [7]) | IC50 (IDE [2]; [8]) | Ki (IDE [2]; [9]) | IC50 (IDE [1]; [10]) | other results |
| --- | --- | --- | --- | --- | --- | --- | --- | --- | --- | --- | --- | --- | --- | --- | --- | --- | --- | --- | --- | --- | --- |
| CC(C)C[C@H](NC(=O)[C@H](CO)NC(=O)[C@@H](N)CCC(N)=O)C(=O)N1CCC[C@H]1C(=O)N[C@@H](Cc1c[nH]c2ccccc12)C(=O)N[C@H]1CSSC[C@@H](C(=O)N[C@H](C(=O)N[C@H](C(N)=O)[C@@H](C)O)C(C)C)NC(=O)[C@H](Cc2c[nH]cn2)NC(=O)[C@@H]2CCCN2C(=O)[C@H](Cc2ccc(O)cc2)NC1=O [P12-3A] (H-QSLPWCYPHCVT-NH2; disulfide 6-10 (inferred)) | 101% | 96.2% | 95.5% | 93.1% | 87.4% | 7.45% | 0.698% | YES | 90.2% | 84.4% | 76.5% | 62.5% | 47.7% | – | – | – | – | – | – | – | Hill slope (IDE [2]; dose-response of P12-3A against insulin degradation by IDE, Fig 3B): 0.91 ± 0.15; remaining activity at 50 µM (IDE [2]; insulin ELISA, Cmpd 50 uM, Runs 1-3, read-out: Percent Activity (normalized source data)): 28.6%; remaining activity at 0.0316228 µM (IDE [2]; resynthesized P12-3A 0.0316228 uM, individual replicates, read-out: Percent Activity (normalized source data)): 98.5% |
| WSPISGKFFQRF [P12-4] | 89.9% | 96.1% | 86.6% | 80.4% | 84.9% | 75.6% | 30.5% | YES | – | – | – | – | – | 259 µM | 402 µM and 377 µM | 389 µM | 1.9 µM and 3.16 µM and 3.78 µM | 2.95 µM | 1.5 ± 0.3 µM | – | – |
| CC(C)C[C@H](NC(=O)[C@H](CO)NC(=O)[C@@H](N)CCC(N)=O)C(=O)N1CCC[C@H]1C(=O)N[C@@H](Cc1c[nH]c2ccccc12)C(=O)N[C@H]1CSSC[C@@H](C(=O)N[C@H](C(=O)N[C@H](C(=O)O)[C@@H](C)O)C(C)C)NC(=O)[C@H](Cc2c[nH]cn2)NC(=O)[C@@H]2CCCN2C(=O)[C@H](Cc2ccc(O)cc2)NC1=O [P12-3] (H-QSLPWCYPHCVT-OH; disulfide 6-10 (inferred)) | 106% | 99.5% | 95.9% | 104% | 70.9% | 8.98% | 1.55% | YES | 66.3% | 72.2% | 62.9% | 64.4% | 37.6% | – | – | – | – | – | – | – | – |
| QSLPWCYP-NH2 [P12-3B] | 101% | 96.9% | 101% | 97% | 80.9% | 60.2% | 11.2% | – | – | – | – | – | – | 30.6 µM | 45.1 µM and 46.8 µM | 45.9 µM | – | – | > 10 µM | 119 µM | IC50 (IDE [1]; 0-hr incubation, mean of runs, read-out: IC50s, Mean): 59.2 µM; IC50 (IDE [2]; from initial test at 10 uM using insulin (100 nM), read-out: IC50 (summary of results, listed in Table 1)): > 10 µM |
| VHWDFRQWWQPS-NH2 [P12-1A] | 79.1% | 75% | 59.1% | 50.1% | 33.7% | 12.7% | 21.4% | YES | – | – | – | – | – | 62.2 µM | 96.5 µM and 90.2 µM | 93.3 µM | 3.22 µM and 1.93 µM and 2.38 µM | 2.51 µM | 1.3 ± 0.2 µM | 8.43 µM | – |
| VHWDFRQWWQPS [P12-1] | 97.5% | 104% | 99% | 73.2% | 42.7% | 10% | 0.247% | YES | – | – | – | – | – | 105 µM | 154 µM and 160 µM | 157 µM | 1.58 µM and 1.47 µM and 1.72 µM | 1.59 µM | 0.8 ± 0.04 µM | – | Ki (IDE [2]; as restated in the Discussion, read-out: Ki (insulin)): 0.8 µM |
